# Earlier results as cited in patent US5721209A, “Iron chelator and inhibitor of iron-mediated oxidant injury” (The Regents of the University of California, priority 1995, dated 1998).
# Like-named read-outs stand apart in the source and are kept apart here.
# How the values were obtained:
# [1] = tested on: neuroblastoma cells; conditions: removal of iron; growth of normal cells not similarly affected
# [2] = tested on: ischemic myocardium; conditions: for prevention of reperfusion injury / myocardial infarct size: administered prior to reperfusion / prior to occurrence of the myocardial infarct
# [3] = according to Macham
# [4] = prior known iron chelator
compound,measurement,setting,value
CC(=O)N(O)CCCCCNC(=O)CCC(=O)N(O)CCCCCNC(=O)CCC(=O)N(O)CCCCCN [deferoxamine],growth of neuroblastoma cells,[1],negatively affected
same,prevention of reperfusion injury,[2]; administered at or after the onset of reperfusion,ineffective
same,prevention of reperfusion injury / myocardial infarct size,[2],prevents injury and reduces myocardial infarct size
same,prevention of reperfusion injury / myocardial infarct size,[2]; listed as Desferoxamine,effective
mycobactin,solubility,[3],water insoluble
O=C(O)CN(CCN(CC(=O)O)CC(=O)O)CC(=O)O [EDTA],prevention of (.cndot.OH) production by the Fenton reaction,[4],do not prevent (.cndot.OH) production by the Fenton reaction
